pIC50: −log10 of the molar value.
How the values were obtained:
MRSA = assay: Resensitization to antibiotics (log reduction, TABLE 29); type: cell-based, S. aureus
Experimental: (§1) In a 96-well microtiter plate, two-fold dilutions were made of each drug (starting with 100 μM) in 100 μL of a cell suspension in TSB. The resulting samples were incubated overnight at 37° C. on a rotary shaking incubator at 100 rpm. The samples were then visually inspected for turbidity. A 20% well volume of MTT reagent (5 mg/mL) was subsequently added, and the samples were incubated for about 20 minutes.

[1] = system: Klebsiella pneumoniae (CRE, ATCC BAA-1705); assay: MIC against CRE; type: cell-based; conditions: Klebsiella pneumoniae, ATCCBAA1705
Experimental: TABLE 27 details the individual MIC values of compounds 1, 7, 8, 9, 10, 11, PMB, PME, and light against CRE.
(§2) The MICs of PME and compounds 8-11 were determined against Klebsiella pneumoniae (CRE, ATCC BAA-1705). […] After the incubation with PME, the compounds were added at a concentration of 20 μM, and the samples were further incubated. At specific time points, the samples were taken and diluted ten-fold in media. Ten microliters of each dilution was then drip-streaked onto an agar plate and incubated overnight at 37° C. Colony counts were then performed and the CFU/mL were calculated.

[2] = system: A. baumannii (ATCC 15151); assay: MIC against A. baumannii; type: cell-based; conditions: Acinetobacter baumannii, ATCC15151
Experimental: TABLE 28 details the individual MIC values of compounds 1, 7, 8, 9, 10, 11, PMB, PME, and light against A. baumannii.
(§3) The MICs of PME and compounds 8-11 were determined against A. baumannii (ATCC 15151). […] After incubating the cells with PME, a compound (5 μM) was added, and the samples were further incubated at 37° C. At specific time points, samples were taken and diluted ten-fold in media. Ten microliters of each dilution was then drip-streaked onto an agar plate and incubated overnight at 37° C. Colony counts were then performed, and the CFU/mL were calculated.

P. aeruginosa = assay: MIC against P. aeruginosa; type: cell-based; conditions: Pseudomonas aeruginosa, read-out: MIC
From the text: Only compound 1 was able to decrease the CFU/mL when used in conjunction with white light to treat P. aeruginosa.

[3] = system: Klebsiella pneumoniae (CRE, ATCC BAA-1705); assay: Time-dependent colony counts of CRE with compounds and PME; type: cell-based; conditions: PME 0.2 μg/mL, compound 20 μM; FIGS. 48, 49
Experimental: as §2, with “After the incubation with PME, the compounds were added at a concentration of 20 μM, and the samples were further incubated.” left out

[4] = system: A. baumannii (ATCC 15151); assay: Time course of colony counts with compounds and PME or PMB; type: cell-based; conditions: for A. baumannii colony populations on treatment with compound and PME: 0.2 μg/mL of PME, compound 5 μM, FIGS. 50, 52
Experimental: as §3

VRE = assay: Resensitization to antibiotics (log reduction, TABLE 29); type: cell-based, Enterococcus faecalis
Experimental: as §1

WI38 cells = assay: Toxicity (IC50) on WI38 cells; type: cell-based; conditions: Homo sapiens, WI-38; normal lung fibroblast WI38 cells
Experimental: The toxicities of the compounds of the invention were determined for human cancerous cervical epithelium HeLa and normal lung fibroblast WI38 cells. The toxicities of EPIs INF-55 and INF-55Cl were quantified as controls. […] TABLE 2 compares the toxicity of compounds 7-11 on HeLa cells and normal WI38 cells.

VRE (ATCC 51299) = assay: Synergy with antibiotics against VRE; type: cell-based, Enterococcus faecalis
Experimental: For these experiments, overnight cultures of VRE were diluted to about 5×10^5 CFU/mL in TSB. Then, 1 mL of the diluted broth suspension was added to a borosilicate glass culture tube. After appropriate volumes of the compounds were added to the broth suspensions, the samples were mixed using a vortex mixer, and an appropriate volume of an antibiotic was added to the samples. The samples were mixed using a vortex mixer and incubated for 18 hours at 37° C. on a rotary shaking incubator. After 18 hours, the test cultures were diluted ten-fold, and 10 μL of each dilution was drip-streaked onto a TSA plate and incubated for 18 hours at 37° C. Colony counts were then performed and the CFU/mL values were calculated.
TABLE 24 details the MICs of common antibiotics against VRE. In a 12×75 mm borosilicate glass culture tube, 1 mL of cell suspension was added. Then, compound 7 was added to the cells, and the samples were mixed using a vortex mixer. […] The samples were incubated overnight at 37° C. on a rotary shaking incubator at 100 rpm. Inhibition observed visually compared to each individual treatment was considered synergistic.

SMILES | MIC [1] [µM] | MIC [2] [µM] | MIC (P. aeruginosa) [µM] | CRE colony populations on simultaneous treatment with PME [3] | pIC50 (WI38 cells) | A. baumannii colony populations on treatment with compound and PME [4] | further results
Clc1ccc(/C=C/c2[nH]c3ccccc3c2/C=C/c2ccc(Cl)cc2)cc1 [Compound 1] | > 100 | > 100 | > 100 | – | – | – | Log Reduction (MRSA; compound 1 μM, MRSA ATCC BAA-1717, Light (2 min)): 6; Log Reduction (MRSA; compound 10 μM, Norfloxacin (20 μg/mL)): 9; Log Reduction (MRSA; compound 10 μM, Oxacillin (100 μg/mL)): 7-8; Log Reduction (MRSA; compound 10 μM, Tetracycline (0.1 μg/mL)): 5-6; Log Reduction (MRSA; compound 10 μM, Tobramycin (100 μg/mL)): 9
Brc1ccc(/N=N/c2c[nH]c3ccccc23)cc1 [Compound 8] | > 100 | > 100 | > 100 | reduced the CRE colony populations to sterility | 4.93 | – | A. baumannii colony populations on treatment with compound and PME or PMB ([4]; FIG. 51): reduced to sterility; Log Reduction (VRE; compound 7.5 μM, Norfloxacin ([…])): 4-5; killing of VRE in conjunction with antibiotics (VRE (ATCC 51299); 7.5 μM of compound 8 with vancomycin, tetracycline, or norfloxacin, FIG. 43): more effective at killing VRE
Clc1ccc(/N=N/c2c[nH]c3ccccc23)cc1 [Compound 9] | > 100 | > 100 | > 100 | reduced the CRE colony populations to sterility | 4.21 | reduced to sterility | Log Reduction (MRSA; compound 8 μM, Oxacillin ([…])): 2-3; Log Reduction (VRE; compound 75 μM, Norfloxacin ([…])): 4; Log Reduction (VRE; compound 75 μM, Tetracycline (1.5 μg/mL)): 3-4; killing of VRE in conjunction with antibiotics (VRE (ATCC 51299); 75 μM of compound 9 with tetracycline or norfloxacin, FIG. 44): more effective at killing VRE
Clc1ccc(Oc2c(-c3ccc(Cl)cc3)[nH]c3ccccc23)cc1 [Compound 10] | > 100 | > 100 | > 100 | reduced the CRE colony populations to sterility | 4.26 | reduced to sterility | Log Reduction (MRSA; compound 1 μM, Oxacillin (100 μg/mL)): 4-5; Log Reduction (VRE; compound 2 μM, Tetracycline (1 μg/mL)): 3-4; Log Reduction (VRE; compound […], Vancomycin (3.5 μg/mL)): 4
Clc1ccc(Oc2c(-c3ccc(Cl)cc3)[nH]c3ccc(Cl)cc23)cc1 [Compound 11] | > 100 | > 100 | > 100 | reduced the CRE colony populations to sterility | 5.02 | reduced to sterility | Log Reduction (VRE; compound 0.5 μM, Norfloxacin ([…])): 3-4; Log Reduction (VRE; compound 0.5 μM, Tetracycline (1.5 μg/mL)): 3; Log Reduction (VRE; compound 0.5 μM, Vancomycin (3.5 μg/mL)): 3
